From publication PMC10023787, “Trio-pharmacophore DNA-encoded chemical library for simultaneous selection of fragments and linkers” (Nature Communications, 2023)
“Also recorded” adds a separate entry of the source. Read-outs that look alike come from different tables or passages of the source.

Columns and labels:
MMP-9 [1] = target: T1, MMP-9 (Homo sapiens, UniProt P14780); assay: MMP-9 inhibition assay (fluorogenic peptide substrate); type: biochemical; details: for inhibitory effect: in words
T1 construct: purchased Sino Biological 10327-HNAH
Procedure, shortened: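 Human proMMP-2 and proMMP-9 were activated with 1 mM APMA for 2 h at 37 °C, then used at 6.5 nM (MMP-2) or 10 nM (MMP-9) final in Tris/NaCl/CaCl2/Brij 35 buffer, pH 7.5. After 30 min preincubation with compound at RT, 25 μM FRET peptide substrate was added and fluorescence (ex 280/em 360 nm) followed for 30 min. IC50 came from logistic fits of Vmax.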

MMP-9 [2] = target: T1, MMP-9; assay: Dynamic dual-pharmacophore DEL selection against MMP-9, NGS decoding; type: binding
Description: Matrix metalloproteinases (MMPs) are zinc-dependent endopeptidases capable of degrading and remodeling extracellular matrix components[46],[47]. They are attractive therapeutic targets as high expression levels were detected in various diseases, such as inflammatory diseases, and at different stages of cancers, including metastasis, invasion, and angiogenesis[47]–[53]. As shown in Supplementary Fig. 3c, we performed selections against the two gelatinases (human MMP-2 and human MMP-9) to identify binding fragments for later design and synthesis of small molecule inhibitors. After selection, the three sub-libraries were decoded, and the enrichment was calculated by dividing the post-selection fraction (count/total counts) by the pre-selection fraction (Fig. 4a and Supplementary Fig. 13).
4 µg of MMP-2/MMP-9 was dissolved in 100 µl of selection buffer containing 25 mM Tris-base, 10 mM CaCl2, 150 mM NaCl, 0.05% Tween 20, pH 7.5. 10 µl of 4-Aminophenylmercuric acetate (APMA) (100 mM) solution was added to the protein solution and incubated at 37 °C for 1 h. After activation, the solution was added on top of 40 µl pre-washed Ni-NTA resin and incubated for 30 min on a rotary shaker. The supernatant was discarded, and the resin was washed three times with the selection buffer.
For each independent selection, three sub-libraries were mixed in the selection buffer with a final concentration of 40 nM of each sub-library in 100 µl. The mixture was heat denatured at 90 °C for 1 min and slowly cooled down to allow the formation of the trio-pharmacophore library. The dynamic dual-pharmacophore DEL was provided by DyNAbind GmbH (Merck, DYNA001).
The assembled library was incubated with the protein-bound solid support for 2 h at RT on a rotary shaker. In parallel, selection on bare solid support served as the negative control to exclude promiscuous binders on the resin. After panning, the supernatant was discarded, and the resin was washed three times with 1 ml selection buffer. Finally, 100 µl of 50 mM Tris buffer, pH 7.4 was added to resuspend the resin and the resin was incubated at 95 °C for 5 min to denature the protein, release, and collect the bound library members.
The eluted library members were subjected to sample preparation for NGS. NGS preparation was achieved by two-step PCR. First, the individual selection was indexed using primers containing unique sequences corresponding to each selection. The amplified product was purified from 2% agarose gel. Second, the purified DNA from all selections were pooled in equal amount and subjected to the 2nd PCR step to attach sequences compatible with the NGS flow cell and the sequencing primers. NGS was performed by Novogene UK with Novaseq 6000. Raw data files (fastq files) obtained were decoded using a custom python script and excel. The sequence reads corresponding to each sample was retrieved by searching for the correct index unique to each selection. Then, the code region was extracted from each sequence and assigned to the corresponding identity. The count of each code in each selection sample was obtained by looping through the total reads and counting the occurrence of each code. The enrichment fold of each compound was calculated by first, dividing the count by the total count to get the abundance, second, the abundance after the selection was divided by the abundance of pre-selection to reflect the distribution change of the compound. Next, the enrichment fold was plotted against the count for each member of the library to give the scatter plots as in Fig. 4.

[3] = read-out: Mean (MMP-9, Supplementary fig 16)
[4] = read-out: Mean (MMP-9 dose-response, Supplementary fig 15)
[5] = read-out: Mean (dose-response, Supplementary fig 17)
[6] = read-out: Normalized activity (Mean)

T1 sequence (P14780 107-707 limits assumed): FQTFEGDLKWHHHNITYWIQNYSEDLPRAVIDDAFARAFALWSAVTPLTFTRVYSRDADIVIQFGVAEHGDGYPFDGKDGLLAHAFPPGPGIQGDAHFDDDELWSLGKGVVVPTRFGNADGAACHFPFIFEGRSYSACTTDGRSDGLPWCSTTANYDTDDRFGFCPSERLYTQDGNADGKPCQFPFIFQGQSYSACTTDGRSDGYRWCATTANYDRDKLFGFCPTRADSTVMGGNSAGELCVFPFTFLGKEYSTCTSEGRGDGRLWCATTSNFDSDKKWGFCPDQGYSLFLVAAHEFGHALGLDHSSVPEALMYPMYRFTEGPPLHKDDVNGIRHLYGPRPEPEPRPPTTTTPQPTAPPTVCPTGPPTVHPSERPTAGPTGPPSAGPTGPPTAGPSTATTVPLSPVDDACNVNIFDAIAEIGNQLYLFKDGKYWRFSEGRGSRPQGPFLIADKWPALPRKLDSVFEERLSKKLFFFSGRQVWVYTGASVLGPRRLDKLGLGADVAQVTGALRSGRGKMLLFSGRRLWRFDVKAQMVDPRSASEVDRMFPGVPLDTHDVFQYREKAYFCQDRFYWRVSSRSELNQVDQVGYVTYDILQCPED

## Cn1c(O)nc2cc(C(=O)O)cnc21 [Compound 826]
MMP-9 [1]; Figure 5b, fragment concentration 0.12207 µM, read-out: Normalized activity (Mean)
  remaining activity at 0.12207 µM: 95.1%
MMP-9 [1]; Figure 5b, fragment concentration 0.488281 µM, read-out: Normalized activity (Mean)
  remaining activity at 0.488281 µM: 93.3%
MMP-9 [1]; Figure 5b, fragment concentration 1.95312 µM, read-out: Normalized activity (Mean)
  remaining activity at 1.95312 µM: 97.2%
MMP-9 [1]; Figure 5b, fragment concentration 7.8125 µM, read-out: Normalized activity (Mean)
  remaining activity at 7.8125 µM: 99.6%
MMP-9 [1]; Figure 5b, fragment concentration 31.25 µM, read-out: Normalized activity (Mean)
  remaining activity at 31.25 µM: 92%
MMP-9 [1]; Figure 5b, fragment concentration 125 µM, read-out: Normalized activity (Mean)
  remaining activity at 125 µM: 94.2%
MMP-9 [1]; Figure 5b, fragment concentration 500 µM, read-out: Normalized activity (Mean)
  remaining activity at 500 µM: 83%
MMP-9 [1]; MMP-9, concentration 0.12 µM, read-out: Mean (MMP-9, Supplementary fig 16)
  remaining activity at 0.12 µM: 95.1%
MMP-9 [1]; MMP-9, concentration 0.49 µM, read-out: Mean (MMP-9, Supplementary fig 16)
  remaining activity at 0.49 µM: 93.3%
MMP-9 [1]; MMP-9, concentration 1.95 µM, read-out: Mean (MMP-9, Supplementary fig 16)
  remaining activity at 1.95 µM: 97.2%
MMP-9 [1]; MMP-9, concentration 7.81 µM, read-out: Mean (MMP-9, Supplementary fig 16)
  remaining activity at 7.81 µM: 99.6%
MMP-9 [1]; MMP-9, concentration 31.25 µM, read-out: Mean (MMP-9, Supplementary fig 16)
  remaining activity at 31.25 µM: 92%
MMP-9 [1]; MMP-9, concentration 125.00 µM, read-out: Mean (MMP-9, Supplementary fig 16)
  remaining activity at 125 µM: 94.2%
MMP-9 [1]; MMP-9, concentration 500.00 µM, read-out: Mean (MMP-9, Supplementary fig 16)
  remaining activity at 500 µM: 83%
MMP-9 [1]; MMP-9, concentration 0.12 µM, read-out: Mean (MMP-9 dose-response, Supplementary fig 15)
  remaining activity at 0.12 µM: 95.1%
MMP-9 [1]; MMP-9, concentration 0.12 µM, read-out: Mean (dose-response, Supplementary fig 17)
  remaining activity at 0.12 µM: 82.6%
MMP-9 [1]; MMP-9, concentration 0.49 µM, read-out: Mean (MMP-9 dose-response, Supplementary fig 15)
  remaining activity at 0.49 µM: 93.3%
MMP-9 [1]; MMP-9, concentration 0.49 µM, read-out: Mean (dose-response, Supplementary fig 17)
  remaining activity at 0.49 µM: 80.6%
MMP-9 [1]; MMP-9, concentration 1.95 µM, read-out: Mean (MMP-9 dose-response, Supplementary fig 15)
  remaining activity at 1.95 µM: 97.2%
MMP-9 [1]; MMP-9, concentration 1.95 µM, read-out: Mean (dose-response, Supplementary fig 17)
  remaining activity at 1.95 µM: 99.3%
MMP-9 [1]; MMP-9, concentration 7.81 µM, read-out: Mean (MMP-9 dose-response, Supplementary fig 15)
  remaining activity at 7.81 µM: 99.6%
MMP-9 [1]; MMP-9, concentration 7.81 µM, read-out: Mean (dose-response, Supplementary fig 17)
  remaining activity at 7.81 µM: 88.5%
MMP-9 [1]; MMP-9, concentration 31.25 µM, read-out: Mean (MMP-9 dose-response, Supplementary fig 15)
  remaining activity at 31.25 µM: 92%
MMP-9 [1]; MMP-9, concentration 31.25 µM, read-out: Mean (dose-response, Supplementary fig 17)
  remaining activity at 31.25 µM: 96.1%
MMP-9 [1]; MMP-9, concentration 125.00 µM, read-out: Mean (MMP-9 dose-response, Supplementary fig 15)
  remaining activity at 125 µM: 94.2%
MMP-9 [1]; MMP-9, concentration 125.00 µM, read-out: Mean (dose-response, Supplementary fig 17)
  remaining activity at 125 µM: 87.7%
MMP-9 [1]; MMP-9, concentration 500.00 µM, read-out: Mean (MMP-9 dose-response, Supplementary fig 15)
  remaining activity at 500 µM: 83%
MMP-9 [1]; MMP-9, concentration 500.00 µM, read-out: Mean (dose-response, Supplementary fig 17)
  remaining activity at 500 µM: 84%
MMP-9 [1]
  inhibitory effect: No inhibitory effects could be measured; also recorded: did not exhibit meaningful activity
MMP-9 [2]; MMP9 selection, 3L library (Supplementary fig 13)
  MMP9 3L Enrichment Fold: 4.359
MMP-9 [2]; MMP9 selection, 3L library, sequence count (Supplementary fig 13)
  MMP9 3L Count: 10836
MMP-9 [2]; MMP9 selection, 5L library (Supplementary fig 13)
  MMP9 5L Enrichment Fold: 1.703
MMP-9 [2]; MMP9 selection, 5L library, sequence count (Supplementary fig 13)
  MMP9 5L Count: 1619

## O=C(O)c1cncc(O)c1 [Compound 828]
MMP-9 [1]
  inhibitory effect: high µM range
MMP-9 [1]; mean ± SE, n.d: not detected, Fig. 5e prints no unit, µM, read-out: IC50
  IC50: 271 ± 12.4 µM
MMP-9 [1]; [3]
  remaining activity at 0.08 µM: 98.6%
  remaining activity at 0.39 µM: 97.4%
  remaining activity at 1.95 µM: 84.3%
  remaining activity at 9.75 µM: 88.7%
  remaining activity at 48.76 µM: 80.3%
  remaining activity at 243.8 µM: 54.4%
  remaining activity at 1219 µM: 0%
MMP-9 [1]; [4]
  remaining activity at 0.08 µM: 98.6%
  remaining activity at 0.39 µM: 97.4%
  remaining activity at 1.95 µM: 84.3%
  remaining activity at 9.75 µM: 88.7%
  remaining activity at 48.76 µM: 80.3%
  remaining activity at 243.8 µM: 54.4%
  remaining activity at 1219 µM: 0%
MMP-9 [1]; [5]
  remaining activity at 0.08 µM: 98.6%
  remaining activity at 0.39 µM: 97.4%
  remaining activity at 1.95 µM: 84.3%
  remaining activity at 9.75 µM: 88.7%
  remaining activity at 48.76 µM: 80.3%
  remaining activity at 243.8 µM: 54.4%
  remaining activity at 1219 µM: 0%
MMP-9 [1]; [6]
  remaining activity at 0.078016 µM: 98.6%
  remaining activity at 0.39008 µM: 97.4%
  remaining activity at 1.9504 µM: 84.3%
  remaining activity at 9.752 µM: 88.7%
  remaining activity at 48.76 µM: 80.3%
  remaining activity at 243.8 µM: 54.4%
  remaining activity at 1219 µM: 0%
MMP-9 [2]; MMP9 3L (3' sub-library members)
  Enrichment Fold: 10.2969
MMP-9 [2]; MMP9 3L (3' sub-library members), NGS sequence count after selection
  Count: 32127
